{"source": "patent US7795498B2", "about": "“Use of AtBG1 gene for the generation of transgenic plants with increased resistance to various abiotic stress” (Postech Foundation, priority 2004, dated 2010)", "molecules": {"B1": {"name": "AtBG1:HA: HA (hemagglutinin) tagged wild type AtBG1, Arabidopsis thaliana β-glucosidase 1 (protein)", "chain": "QGPVCGAGLPDKFSRLNFPEGFIWGTATAAFQVEGAVNEGCRGPSMWDTFTKKFPHRCENHNADVAVDFYHRYKEDIQLMKDLNTDAFRLSIAWPRIFPHGRMSKGISKVGVQFYHDLIDELLKNNIIPLVTVFHWDTPQDLEDEYGGFLSGRIVQDFTEYANFTFHEYGHKVKHWITFNEPWVFSRAGYDNGKKAPGRCSPYIPGYGQHCQDGRSGYEAYQVSHNLLLSHAYAVDAFRNCKQCAGGKIGIAHSPAWFEPQDLEHVGGSIERVLDFILGWHLAPTTYGDYPQSMKDRVGHRLPKFTEAEKKLLKGSTDYVGMNYYTSVFAKEISPDPKSPSWTTDSLVDWDSKSVDGYKIGSKPFNGKLDVYSKGLRYLLKYIKDNYGDPEVIIAENGYGEDLGEKHNDVNFGTQDHNRKYYIQRHLLSMHDAICKDKVNVTGYFVWSLMDNFEWQDGYKARFGLYYIDFQNNLTRHQKVSGKWYSEFLKPQFPTSKLREEL", "modifications": "left off: small tags and cut ends"}, "B2": {"name": "AtBG1[E207Q]:HA: HA tagged AtBG1 with substitution mutation at position 207, an active site of β-glycosidase (protein, UniProt Q9SE50 27-528, looked up, variant E207Q)", "Beta-D-glucopyranosyl …": "QGPVCGAGLPDKFSRLNFPEGFIWGTATAAFQVEGAVNEGCRGPSMWDTFTKKFPHRCENHNADVAVDFYHRYKEDIQLMKDLNTDAFRLSIAWPRIFPHGRMSKGISKVGVQFYHDLIDELLKNNIIPLVTVFHWDTPQDLEDEYGGFLSGRIVQDFTEYANFTFHEYGHKVKHWITFNQPWVFSRAGYDNGKKAPGRCSPYIPGYGQHCQDGRSGYEAYQVSHNLLLSHAYAVDAFRNCKQCAGGKIGIAHSPAWFEPQDLEHVGGSIERVLDFILGWHLAPTTYGDYPQSMKDRVGHRLPKFTEAEKKLLKGSTDYVGMNYYTSVFAKEISPDPKSPSWTTDSLVDWDSKSVDGYKIGSKPFNGKLDVYSKGLRYLLKYIKDNYGDPEVIIAENGYGEDLGEKHNDVNFGTQDHNRKYYIQRHLLSMHDAICKDKVNVTGYFVWSLMDNFEWQDGYKARFGLYYIDFQNNLTRHQKVSGKWYSEFLKPQFPTSKLREEL", "modifications": "HA tag"}}, "key": {"'mutant atbg1' [1]": {"test_system": "'mutant atbg1'", "assay": "Stomatal size of 'mutant atbg1' at night after ABA treatment", "type": "in vivo, Arabidopsis thaliana", "details": "10 μM and 50 μM ABA at 23 o'clock, measured at 24 o'clock, n=200", "description": "(§1) Particularly, the transgenic plant was cultured at 20° C. with 70% relative humidity under 16/8 hour-light/dark cycle and the stomatal sizes were measured at noon and midnight (n=150) (FIG. 13).\n(§2) To investigate the effect of exogenous ABA on stomatal closure, the ‘mutant atbg1’ plant was treated with 10 μM and 50 μM of ABA at 23 o'clock and stomatal sizes were measured at 24 o'clock (FIG. 14). Control group was treated with 100 μM of NAME (L-nitroargininemethylester), known as […], during the time of stomatal disclosure, that is for 10 hours from 4 o'clock, and stomatal sizes were measured at midnight."}, "'mutant atbg1' [2]": {"test_system": "'mutant atbg1'", "assay": "Leaf colour of 'mutant atbg1' after exogenous ABA", "type": "in vivo, Arabidopsis thaliana", "details": "exogenous ABA applied to one week cultivated 'mutant atbg1', 3 more days of culture", "excerpt": "Exogenous ABA was applied to one week cultivated ‘mutant atbg1’, followed by culture for 3 more days."}, "AtBG1:HA": {"test_system": "AtBG1:HA", "assay": "AtBG1 glycosylation in protoplasts, blotting with anti-HA antibody", "type": "cell-based, Arabidopsis thaliana", "details": "anti-HA blot", "excerpt": "To confirm the above result that AtBG1 localizes to ER, the present inventors examined AtBG1 glycosylation. Glycosylation of protein produces glycan and this glycan moiety of the protein localizing to the ER is sensitive to both endo-H and PNGase F, meaning the glycan moiety is easily digested by endo-H and PNGase F enzyme activities (Kuznetsov G. et al., J. Biol. Chem. 268: 2001, 1993). Tunicamycin is an inhibitor of the glycosylation.\nProtein extract obtained from protoplasts of AtBG1:HA transfected plant and treated with endo-H and PNGase F (not treated with tunicamycin), protein extract obtained from protoplasts of tunicamycin treated Arabidopsis thaliana transformed with AtBG1 and protein extract obtained from protoplasts of tunicamycin-non-treated Arabidopsis thaliana transformed with AtBG1 were examined by blotting using anti-HA antibody."}, "wild type": {"test_system": "wild type", "assay": "Stomatal size of wild type at midnight after NAME treatment", "type": "in vivo, Arabidopsis thaliana", "details": "100 μM NAME for 10 hours from 4 o'clock, measured at midnight", "description": "as §1, §2"}, "[3]": {"assay": "ABA-GE hydrolysis by immunopurified AtBG1 proteins, ABA fraction by HPLC and ELISA", "type": "biochemical, Arabidopsis thaliana", "details": "100 mM citrate buffer pH 5.5, 37° C., one and half hours"}}, "note": "Entries after “also recorded” stand apart in the source; their conditions may differ."}
{"molecule": "CC1=CC(=O)CC(C)(C)[C@@]1(O)/C=C/C(C)=C\\C(=O)O", "note": "[ABA, abscisic acid]", "values": [{"measurement": "stomatal closure in the night", "setting": "'mutant atbg1' [1]", "value": "induced stomatal closure in the night"}, {"measurement": "leaf colour phenotype", "setting": "'mutant atbg1' [2]", "value": "yellow leaf turned into normal green"}]}
{"molecule": "Tunicamycin", "values": [{"measurement": "size of AtBG1:HA versus tunicamycin-non-treated protoplasts", "setting": "AtBG1:HA", "value": "smaller"}]}
{"molecule": "COC(=O)[C@@H](N)CCCNC(=N)N[N+](=O)[O-]", "note": "[NAME, L-nitroargininemethylester]", "values": [{"measurement": "stomatal closure", "setting": "wild type", "value": "defects in stomatal closure"}]}
{"molecule": "B1", "values": [{"measurement": "ABA generated from ABA-GE (HPLC peak / ELISA detection)", "setting": "[3]", "value": "novel peaks at the position for ABA; also recorded: hydrolyzes ABA-GE to form ABA"}, {"measurement": "ABA generated from ABA-GE (HPLC peak / ELISA detection)", "setting": "[3]; listed as wild type AtBG1 protein", "value": "high level of ABA"}]}
{"molecule": "B2", "values": [{"measurement": "ABA generated from ABA-GE (HPLC peak / ELISA detection)", "setting": "[3]", "value": "novel peaks at the position for ABA"}, {"measurement": "amount of ABA released from ABA-GE, relative to that of the wild type", "setting": "[3]; ABA peaks quantified by ELISA with anti-ABA antibody", "value": 20, "unit": "%"}]}
